According to US5547972A, “Therapeutic agents useful for treating inflammatory diseases” (The Boots Company PLC, priority 1991, dated 1996):
Counter-ions that a name gives are not always drawn. Like-named read-outs stand apart in the source and are kept apart here.

Key:
[1] = tested on: Zymosan Stimulated Macrophaqes; test: Test A: Inhibition of Arachidonic Acid Release from Zymosan Stimulated Macrophages; type: cell-based, mouse (female MF1); details: inhibition of arachidonic acid release, six concentrations (100, 50, 20, 10, 5 and 1 μM), 5 h with zymosan, read-out: Test A IC50
Experimental: Inhibition of Arachidonic Acid Release from Zymosan Stimulated Macrophaqes
Female MF1 mice (weighing 20 to 25 g) were killed using a rising concentration of CO2. The mice were laid on their backs and the abdomens wiped with 70% alcohol. The skin was pulled back, exposing the peritoneal wall. Medium A (5 ml) (see below) was injected into the peritoneal cavity of each mouse followed by approximately 1 ml of air using a 20 ml syringe and a 21 G×40 mm needle in order to form a suspension of macrophage cells. The medium and cells were then removed using a 19 G×40 mm needle. The resulting suspension was returned to a sterile beaker kept on ice. The extracts from all the mice were pooled and this pooled cell suspension was counted using a Coulter counter and adjusted to a final cell count of 1-1.3×10^6 cells/ml prior to labelling with [^3 H]-arachidonic acid. Typically five mice provided sufficient cells for each multiwell plate.
Sufficient [^3 H]-arachidonic acid in ethanol to give a final concentration of 1.6 μCi/ml (equivalent to 40 μCi/plate) was blown to dryness under nitrogen. The arachidonic acid was then resuspended in 1 or 2 ml of the cell suspension which was then mixed with the remainder of the cell suspension in a centrifuge bottle. The labelled cell suspension was then plated out into sterile plastic 96 flat-bottomed well plates (250 μl per well) and incubated overnight at 37° C. in a moist atmosphere of 5% CO2, 95% air.
The following day, non-adherent cells were removed by washing 3 times with sterile phosphate buffered saline (PBS). The adherent peritoneal macrophages were then cultured for a further 24 hours in the presence or absence of drugs, in medium B (see below) at 37° in a 5% CO2 atmosphere in order to measure the effects of drugs on the spontaneous release of arachidonic acid in the absence of stimulus. After this incubation, supernatants were removed to give media 1 and stored in sealed multi-well plates at 4° C. prior to scintillation counting. Drugs which potentiated spontaneous release of arachidonic acid (125% of controls) were deemed to be toxic at the concentration at which this phenomenon occurred. The supernatants were replaced by fresh medium C containing fresh drug and a stimulus. Three drugs were tested at six concentrations (100, 50, 20, 10, 5 and 1 μM) in replicates of four on each plate. The other wells contained controls consisting of a positive control (e.g. dexamethasone), medium (B) only and medium C only.
Incubation was then continued for a further 5 hours, whereupon the supernatants were collected to give media 2 and the adherent cells washed with PBS. The cells were then lysed with 100 μl of 0.1% TRITON® X100 in a 0.1% solution of bovine serum albumin in 0.9% saline and mechanically disrupted to give cell lysates. These supernatants (media 2) and cell lysates (Cells) were also stored in sealed multi-well plates at 4° C. prior to scintillation counting. 200 μl aliquots of media, or 100 μl aliquots of cells were counted using 2 ml of OPTIPHASE "HIGH SAFE" (Trademark of LKB) as scintillant.
The percentage of arachidonic acid released was calculated using the mean values for each group of 4 wells in the following equation. [formula] cpm=courts per minute
The value for the arachidonic acid release in the absence of stimulus (spontaneous, cpm of media 2) from cells which had been exposed to neither stimulus nor drug was subtracted from all equivalent values (cpm media 2, stimulated with or without drug) to give the net stimulated release. The percentage inhibition of arachidonic acid release caused by a drug may then be calculated using the following equation. [formula]
Compounds of formula I were tested at six concentrations (100, 50, 20, 10, 5 and 1 μM) and IC50 values calculated. Compounds with IC50 values<100 μM are considered to be active. Advantageous compounds have an IC50 value <50 μM.
Medium A (for peritoneal lavage) […]

[2] = tested on: Carrageenan-induced rat paw oedema; test: Test B: Carrageenan-induced rat paw oedema test; type: in vivo, rat (female); details: inhibition of paw oedema, 1 h before carrageenan, 3 h after injection; for inhibition in vivo at 100 mg/kg: Rattus norvegicus, po, 3 h; for Test B % inhibition at 100 mg/kg: oral
Experimental: Carrageenan-induced rat paw oedema test
Female rats, weight range 125-150 g were fasted overnight. One of the hind legs of each animal was marked with a line at the connection between the cuboid/navicular and calcaneus/talus bones. Groups of six rats were orally dosed at 10 ml/kg, in random order, with a given dose of the test compound given as a solution or suspension in 10% (w/v) aqueous acacia solution.
One hour after dosing, 0.1 ml of 1% (w/v) sterile carrageenan λ in normal saline was injected deeply into the plantar surface of the marked hind foot of each rat. The volume of the foot (up to the marked line) was measured immediately after injection using duplicate water displacement readings. Three hours after injection the foot volume was measured again and the percentage increase in foot volume relative to the initial reading was calculated.
The increase in foot volume (i.e. the degree of oedema) in drug treated animals when compared with that in the drug untreated control gave the degree of inhibition of paw oedema by the drug.
Compounds were considered to be active in this test if they produced a 20% or greater inhibition of paw oedema in at least two out of three tests after oral dosing at 100 mg/kg. Statistical significance was assessed using the Student't test for single dose studies and Dunnett's test for multiple dose studies. More advantageous compounds were active in both Tests A and B,

Compound: c1ccc(C(NCCCn2ccnc2)c2ccccc2)cc1 [Example 34, N-benzhydryl-3-(imidazol-1-yl)propylamine dihydrochloride]
- IC50 ([1]; Mus musculus, Macrophage, 5 h): 32 µM
- inhibition in vivo at 100 mg/kg [2]: 47%

Compound: Cc1cn(CCCNCc2ccc(Cl)cc2)cn1 [Example 44, N-(4-Chlorobenzyl)-3-(4-methylimidazol-1-yl)propylamine dihydrochloride]
- IC50 ([1]; Mus musculus, Macrophage, 5 h): 30 µM
- inhibition in vivo at 100 mg/kg [2]: 8%

Compound: Cc1cn(CCCNCc2ccc(Cl)cc2)c(Cc2ccccc2)n1 [Example 47]
- IC50 [1]: 7 µM
- Test B % inhibition at 100 mg/kg [2]: 35%

Compound: CC(NCCCn1ccnc1)c1ccc(Cl)cc1 (single isomer, unassigned; (+)) [Example 93, (+)N-[1-(4-chlorophenyl)ethyl]-3-(imidazol-1-yl)-propylamine (+) ditartrate]
- IC50 [1]: 16 µM
- Test B % inhibition at 100 mg/kg [2]: 57%

Compound: Cc1ncn(CCCNC(C)(C)c2ccc(Cl)cc2)c1C [Example 70, N-[1-(4-Chlorophenyl)-1-methylethyl]-3-(4,5-dimethylimidazol-1-yl)propylamine]
- IC50 ([1]; Mus musculus, Macrophage, 5 h): 11 µM
- inhibition in vivo at 100 mg/kg [2]: 21%

Compound: CC(=O)OCc1ncn(CCCNC(C)(C)c2ccc(Cl)cc2)c1C [Example 98, 1-{3-[1-(4-chlorophenyl)-1-methylethylamino]propyl}-5-methylimidazol-4-ylmethyl acetate dihydrochloride]
- IC50 ([1]; Mus musculus, Macrophage, 5 h): 45 µM
- inhibition in vivo at 100 mg/kg [2]: 4%

Compound: CC(NCCCn1ccnc1)c1ccccc1Cl (centres unmarked) [Example 8, N-[1-(2-Chlorophenyl)ethyl]-3-(imidazol-1-yl)propylamine]
- IC50 ([1]; Mus musculus, Macrophage, 5 h): 92 µM
- inhibition in vivo at 100 mg/kg [2]: 55%

Compound: CCOC(=O)c1c(C)ncn1CCCNC(C)(C)c1ccc(Cl)cc1 [Example 78, Ethyl 1-{3-[1-(4-chlorophenyl)-1-methylethylamino]propyl)-4-methylimidazole-5-carboxylate]
- IC50 ([1]; Mus musculus, Macrophage, 5 h): 20 µM
- inhibition in vivo at 100 mg/kg [2]: 7%

Compound: CC(NCCCn1ccnc1)c1ccc(Cl)cc1Cl (centres unmarked) [Example 2, N-[1-(2,4-Dichlorophenyl)ethyl]-3-(imidazol-1-yl)propylamine]
- IC50 ([1]; Mus musculus, Macrophage, 5 h): 39 µM
- inhibition in vivo at 100 mg/kg [2]: 37%

Compound: CC(NCCCn1ccnc1)c1ccc(Cl)c(F)c1 (centres unmarked) [Example 10, N-[1-(4-Chloro-3-fluorophenyl)ethyl]-3-(imidazol-1-yl)propylamine dihydrochloride]
- IC50 ([1]; Mus musculus, Macrophage, 5 h): 40 µM
- inhibition in vivo at 100 mg/kg [2]: 49%

Compound: Cc1ccc(C(C)(C)NCCCn2ccnc2C)cc1 [Example 73, 3-(2-Methylimidazol-1-yl)-N-[1-methyl-1-(p-tolyl)ethyl]propylamine dihydrochloride]
- IC50 ([1]; Mus musculus, Macrophage, 5 h): 49 µM
- inhibition in vivo at 100 mg/kg [2]: 8%

Compound: Cc1cn(CCCNC(C)c2ccc(Cl)cc2)c(-c2ccccc2)n1 (centres unmarked) [Example 33, N-[1-(4-chlorophenyl)ethyl]-3-(4-methyl-2-phenyl-imidazol-1-yl)propylamine]
- IC50 ([1]; Mus musculus, Macrophage, 5 h): 10 µM
- inhibition in vivo at 100 mg/kg [2]: 2%

Compound: CCC(CC)(NCCCn1ccnc1)c1ccccc1 [Example 80, N-(1-Ethyl-1-phenylpropyl)-3-(imidazol-1-yl)propylamine]
- IC50 ([1]; Mus musculus, Macrophage, 5 h): 54 µM
- inhibition in vivo at 100 mg/kg [2]: 52%

Compound: Cc1ccc(C(C)(C)NCCCn2ccnc2)cc1 [Example 75, 3-(Imidazol-1-yl)-N-[1-methyl-1-(p-tolyl)ethyl]propylamine dihydrochloride]
- IC50 ([1]; Mus musculus, Macrophage, 5 h): 47 µM
- inhibition in vivo at 100 mg/kg [2]: 42%

Compound: c1ccc(Oc2ccc(CNCCCn3ccnc3)cc2)cc1 [Example 39, 3-(Imidazol-1-yl)-N-(4-phenoxybenzyl)propylamine]
- IC50 ([1]; Mus musculus, Macrophage, 5 h): 10 µM
- inhibition in vivo at 100 mg/kg [2]: 35%

Compound: CCOC(=O)C=Cc1ccc(CNCCCn2ccnc2C)cc1 [Example 51, ethyl 4-[3-(2-methylimidazol-1-yl)propylaminomethyl]cinnamate dihydrochloride]
- IC50 ([1]; Mus musculus, Macrophage, 5 h): 20 µM
- inhibition in vivo at 100 mg/kg [2]: 1%

Compound: Cc1nc(C)n(CCCNC(C)c2ccc(Cl)cc2)c1C (centres unmarked) [Example 66, N-[1-(4-Chlorophenyl)ethyl]-3-(2,4,5-trimethylimidazol-1-yl)propylamine]
- IC50 ([1]; Mus musculus, Macrophage, 5 h): 13 µM
- inhibition in vivo at 100 mg/kg [2]: 13%

Compound: Cc1nccn1CCCNC(C)c1ccc(Cl)cc1 (centres unmarked) [Example 27, N-[1-(4-Chlorophenyl)ethyl]-3-(2-methylimidazol-1-yl)propylamine dihydrochloride]
- IC50 ([1]; Mus musculus, Macrophage, 5 h): 8 µM
- inhibition in vivo at 100 mg/kg [2]: 27%

Compound: CC(NCCCn1ccnc1)c1ccc(Cl)cc1 (centres unmarked) [Example 1, N-[1-(4-chlorophenyl)ethyl]-3-(imidazol-1-yl)propylamine dihydrochloride]
- IC50 ([1]; Mus musculus, Macrophage, 5 h): 55 µM
- inhibition in vivo at 100 mg/kg [2]: 59%

Compound: Cc1nccn1CCCNC(C)(C)c1ccc(Cl)cc1 [Example 60, N-[1-(4-chlorophenyl)-1-methylethyl]-3-(2-methylimidazol-1-yl)propylamine]
- IC50 ([1]; Mus musculus, Macrophage, 5 h): 9 µM
- inhibition in vivo at 100 mg/kg [2]: 59%

Compound: Clc1ccc(CNCCCn2ccnc2)c(Cl)c1 [Example 41, N-(2,4-Dichlorobenzyl)-3-(imidazol-1-yl)propylamine]
- IC50 ([1]; Mus musculus, Macrophage, 5 h): 58 µM
- inhibition in vivo at 100 mg/kg [2]: 29%

Compound: CCC(NCCCn1ccnc1)c1ccc(Cl)cc1 (centres unmarked) [Example 30, N-[1-(4-chlorophenyl)propyl]-3-(imidazol-1-yl)propylamine oxalate]
- IC50 ([1]; Mus musculus, Macrophage, 5 h): 24 µM
- inhibition in vivo at 100 mg/kg [2]: 39%

Compound: N-[1-(4-Chlorophenyl)ethyl]-3-(4/5-methylimidazol-1-yl)propylamine [Example 54]
- IC50 [1]: 12 µM
- Test B % inhibition at 100 mg/kg [2]: 63%

Compound: CC(NCC(C)(C)Cn1ccnc1)c1ccc(Cl)cc1 (centres unmarked) [Example 58, N-[1-(4-chlorophenyl)ethyl]-3-(imidazol-1-yl)-2,2-dimethylpropylamine]
- IC50 ([1]; Mus musculus, Macrophage, 5 h): 55 µM
- inhibition in vivo at 100 mg/kg [2]: 79%

Compound: Cc1cc(Cl)ccc1CNCCCn1ccnc1 [Example 40, N-(4-Chloro-2-methylbenzyl)-3-(imidazol-1-yl)propylamine dihydrochloride]
- IC50 ([1]; Mus musculus, Macrophage, 5 h): 50 µM
- inhibition in vivo at 100 mg/kg [2]: 31%

Compound: CC(NCCCCCn1ccnc1)c1ccc(Cl)cc1 (centres unmarked) [Example 55, N-[1-(4-Chlorophenyl)ethyl]-5-(imidazol-1-yl)pentylamine dioxalate]
- IC50 ([1]; Mus musculus, Macrophage, 5 h): 32 µM
- inhibition in vivo at 100 mg/kg [2]: 45%

Compound: Cc1nccn1CCCNCc1ccc(Cl)cc1 [Example 43, N-(4-Chlorobenzyl)-3-(2-methylimidazol-1-yl)propylamine]
- IC50 ([1]; Mus musculus, Macrophage, 5 h): 49 µM
- inhibition in vivo at 100 mg/kg [2]: 33%

Compound: CC(C)(NCCCn1cnc(CO)c1)c1ccc(-c2ccccc2)cc1 [Example 85, 1-{3-[1-(4-biphenylyl)-1-methylethylamino]propyl}imidazol-4-yl-methanol]
- IC50 ([1]; Mus musculus, Macrophage, 5 h): 45 µM
- inhibition in vivo at 100 mg/kg [2]: 0%
